A word on the IC50: it is the concentration that gives 50% inhibition. The term inhibition denotes the share of the control response that was lost under treatment.

Where a name gives a salt, the structure may show the parent alone.

From patent US5432194A, “(4-alkoxypyran-4-yl) substituted arylalkylaryl-, aryalkenylaryl-, and aryalkynylarylurea inhibitors of 5-lipoxygenase” (Abbott Laboratories, priority 1994, dated 1995) come the findings set out here.

In this assay the target is T1, 5-Lipoxygenase (Homo sapiens, UniProt P09917).
T1 construct: from tissue; host or cells: human heparinized whole blood
T1 sequence (P09917 1-674): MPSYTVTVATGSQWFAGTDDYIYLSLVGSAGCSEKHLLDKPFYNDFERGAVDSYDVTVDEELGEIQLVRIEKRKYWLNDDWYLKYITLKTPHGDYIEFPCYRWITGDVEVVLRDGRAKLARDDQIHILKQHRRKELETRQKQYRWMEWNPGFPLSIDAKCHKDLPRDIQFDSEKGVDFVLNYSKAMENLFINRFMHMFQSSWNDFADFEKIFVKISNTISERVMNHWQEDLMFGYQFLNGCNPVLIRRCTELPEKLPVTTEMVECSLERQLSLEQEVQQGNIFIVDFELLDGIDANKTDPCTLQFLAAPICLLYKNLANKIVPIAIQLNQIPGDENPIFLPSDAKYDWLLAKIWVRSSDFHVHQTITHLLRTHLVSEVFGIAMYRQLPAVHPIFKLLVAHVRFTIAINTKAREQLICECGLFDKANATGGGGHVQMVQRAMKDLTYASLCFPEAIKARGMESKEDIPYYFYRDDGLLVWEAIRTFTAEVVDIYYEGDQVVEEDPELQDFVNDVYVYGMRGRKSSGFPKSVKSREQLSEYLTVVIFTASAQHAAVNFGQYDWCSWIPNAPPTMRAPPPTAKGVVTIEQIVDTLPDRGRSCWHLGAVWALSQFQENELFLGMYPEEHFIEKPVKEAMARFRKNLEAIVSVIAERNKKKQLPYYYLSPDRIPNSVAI
Kind of assay: Inhibition of calcium ionophore-induced LTB4 biosynthesis in human whole blood (5-lipoxygenase). Format: cell-based. The conditions noted are these: for IC50: calcium ionophore A23187 8.3 μM, 15 min preincubation, 37° C., read-out: IC50 against 5-lipoxygenase from stimulated LTB4 formation in human whole blood; for inhibition at 0.1 µM: @ 0.10 μM. As to the method: Inhibition of leukotriene biosynthesis was evaluated in an assay, involving calcium ionophore-induced LTB4 biosynthesis expressed human whole blood. Human heparinized whole blood was preincubated with test compounds or vehicle for 15 min at 37° C. followed by calcium ionophore A23187 challenge (final concentration of 8.3 μM) and the reaction terminated after 30 min by adding two volumes of methanol containing prostaglandin B2 as an internal recovery standard. The methanol extract was analyzed for LTB4 using a commercially available radioimmunoassay.

Where [1] appears, read: A23187, read-out: Inhibition of stimulated LTB4 formation in human whole blood.

Take `COC1(c2cccc(Sc3ccc(N(C)C(=O)N4CCN(C)CC4)cc3)c2)CCOCC1` [Example 33, 4-{3-[4-(((4-methylpiperazinyl)carbonyl)-N-methylamino)phenylthio]phenyl}-4-methoxytetrahydropyran hydrochloride salt]: the IC50 turned out to be 80 nM. Take `COC1(c2cccc([S+]([O-])c3ccc(N(C)C(=O)N(C)C)cc3)c2)CCOCC1` (stereo not shown) [Example 9, 4-{3-[4-((N',N'-dimethylaminocarbonyl)-N-methylamino)phenylsulfinyl]phenyl}-4-methoxytetrahydropyran]: under setting [1], the inhibition at 0.1 µM stood at 25%. Consider `COC1(c2cc(F)cc(OCc3ccc(N(C)C(=O)N(C)C)cc3)c2)CCOCC1` [Example 1, 4-{3-[4-((N',N'-dimethylaminocarbonyl)-N-methylamino)benzyloxy]-5-fluorophenyl}-4-methoxytetrahydropyran], for which the IC50 worked out at 17 nM. Still for that read-out and setting: next, `COC1(c2cccc(Sc3ccc(N(C)C(=O)N4CCN(C)CC4)cc3)c2)CCOCC1` [Example 31, 4-{3-[4-(((4-methylpiperazinyl)carbonyl)-N-methylamino)phenylthio]phenyl}-4-methoxytetrahydropyran]: 70 nM. On to `COC1(c2cccc(Sc3ccc(N(C)C(=O)N4CCOCC4)cc3)c2)CCOCC1` [Example 29, 4-{3-[4-((4-morpholinocarbonyl)-N-methylamino)phenylthio]phenyl}-4-methoxytetrahydropyran], for which, under setting [1], the inhibition at 0.1 µM was determined as 94%. On to `COC1(c2cccc(Sc3ccc(N(C)C(=O)N(C)C)cc3)c2)CCOCC1` [Example 8, 4-{3-[4-((N',N'-dimethylaminocarbonyl)-N-methylamino)phenylthio]phenyl}-4-methoxytetrahydropyran], for which the inhibition at 0.025 µM (@ 0.025 μM, A23187, read-out: Inhibition of stimulated LTB4 formation in human whole blood) worked out at 45%. On to `COC1(c2cc(F)cc(OCc3ccc(CN4CCNC4=O)cc3)c2)CCOCC1` [Example 17, 4-{3-[4-(imidazolidin-2-on-1-ylmethyl)benzyloxy]-5-fluorophenyl}-4-methoxytetrahydropyran], for which the inhibition at 200 µM (@ 200 μM, A23187, read-out: Inhibition of stimulated LTB4 formation in human whole blood) was 13%. As to `COC1(c2cc(F)cc(OCc3ccc(CNC(=O)N(C)C)cc3)c2)CCOCC1` [Example 11, 4-{3-[4-((N',N'-dimethylaminocarbonyl)aminomethyl)benzyloxy]-5-fluorophenyl}-4-methoxytetrahydropyran], the IC50 came to 1800 nM. Still for that read-out and setting: next, `C=CCN(C)C(=O)N(C)c1ccc(Sc2cccc(C3(OC)CCOCC3)c2)cc1` [Example 35, 4-{3-[4-(((N'-allyl-N'-methylamino)carbonyl)-N-methylamino)phenyl-thio]phenyl}-4-methoxytetrahydropyran]: 30 nM.

As for `CNC(=O)N(C)c1ccc(Sc2cccc(C3(OC)CCOCC3)c2)cc1` [Example 28, 4-{3-[4-((N"-methylaminocarbonyl)-N-methylamino)phenylthio]phenyl}-4-methoxytetrahydropyran], the inhibition at 0.78 µM (@ 0.78 μM, A23187, read-out: Inhibition of stimulated LTB4 formation in human whole blood) is 100%.
